According to patent US7749967B2, “Peptides of a melanoma antigen and their use in diagnostic, prophylactic, and therapeutic methods” (The United States of America as represented by the …, priority 2001, dated 2010):

System: gp100170-190-specific T cell clone (HLA-DRβ1*0701 restricted)
Test: IFN-γ release by gp100-specific CD4+ T cell clones co-cultured with EBV-B cells pulsed with peptide or protein (ELISA)
Assay type: cell-based, human
Settings: for Gp100 Peptide Identification (IFN-γ; pg/ml) 10 μM: peptide pulsed at 10 μM on EBV-B cells; for Gp100 Peptide Identification (IFN-γ; pg/ml) 10 μM / Gp100 Peptide Identification (IFN-γ; pg/ml) 50 μM: 24 h co-culture with T cell clone; for Gp100 Peptide Identification (IFN-γ; pg/ml) 50 μM: peptide pulsed at 50 μM on EBV-B cells
From the text: The reactivity of nine representative positive clones is presented in FIG. 1A along with 4 representative negative wells (neg1 to neg4). Eight of the 46 positive clones were expanded and further characterized. […] To further characterize the reactivity, some of the clones were co-cultured with autologous B cells pulsed with a bacterially produced gp100 protein. […] In order to identify the MHC restriction element, antibodies known to bind and block the presentation by defined MHC molecules were used. Recognition by clones 6 and 8 of target cells pulsed with the gp100 protein was inhibited when using blocking antibodies against MHC class II and HLA-DR but the recognition was unchanged when using a blocking MHC class I antibody. […] By using HLA-DR matched B cells, the restriction element was identified as HLA-DRβ1*0701 (patient A is HLA-DRβ1*0701 and *1601; FIG. 2).
To find the epitope recognized, an overlapping gp100 peptide library consisting of 68 peptides of 17 or 21 residues overlapping by 10-12 amino acids was prepared. The autologous EBV-B cells were pulsed with the peptide library and used as targets in a T cell recognition assay using three different T cell clones.
Finally, several peptides were synthesized in order to define an optimal HLA-DRβ1*0701 epitope (Rammensee, H. G. Immunogenetics 41:178-228, 1995; Chicz et al. J. Exp. Med. 178:27-47, 1993). […] Finally, substitutions were made at position 5 of the gp100174-394 peptide presuming that this is position 1 according to the defined motif for HLA-DRβ1*0701 (SYFPEITHI web site, http://syfpeithi.de/). However, none of the peptides were better recognized when pulsed at 10 μM or 1 μM compared to the wild type gp100174-394 peptide.
The gp100 peptide library consisted of 68 peptides of 17 to 21 residues overlapping by 10 to 12 amino acids. The peptides were synthesized by solid phase FMOC methodology as previously described (Parkhurst et al. J. Immunol. 157:2539-2548, 1996). A control peptide derived from the Ig kappa chain known to bind to HLA-DRβ1*0701 was also prepared (Chicz et al. J. Exp. Med. 178:27-47, 1993). Recombinant gp100 protein was made and purified as previously described Touloukian et al. J. Immunol. 164:3535-3542, 2000). Recombinant NY-ESO-1 protein is another tumor antigen (Chen, Y T and L J Old. Cancer J. Sci. Am. 5:16-17, 1999) used as negative control and was made and purified as previously described (Zeng et al. J. Immunol. 165:1153-1159, 2000). EBV-B cells (1×10^5) were pulsed with gp100-purified protein or peptides for 18 hours in 96 well flat-bottom plates and T cells were added directly to the pulsed-B cells for a 24 hours recognition assay. In some experiments, EBV-B cells (5×10^5) were pulsed in 48 well plates for 18 hours and cells were washed twice with PBS. T cells were then co-cultured with the pulsed EBV-B cells in 96 well flat-bottom plates for 24 hours. Supernatants were harvested and human IFN-γ was assayed by ELISA using a commercially available kit (R&D Inc.).
Fifty to one hundred thousand responder cells and 4×10^4-10^5 stimulator cells were mixed in 300 ul of AIM-V medium containing […] IL-2 per well in a 96 flat-well microplate. Target cells (1×10^5) were incubated with 1×10^5 specific T cells in 250 μl of T cell medium (AIM-V-based medium) in 96 well flat-bottom plates. Supernatants were harvested after 24 h and human IFN-γ was assayed by ELISA using a commercially available kit (R&D, Inc.; Minneapolis, Minn.).

| Sequence | recognition in overlapping gp100 peptide library screen (68 peptides, all at 100 μM, autologous EBV-B cells, one of three T cell clones, FIG. 3A) | peptide concentration below which recognition was undetectable (titration) (gp100170-190-specific T cell clone, peptide pulsed on EBV-B cells, FIG. 3B) | Gp100 Peptide Identification (IFN-γ; pg/ml) 10 μM | Gp100 Peptide Identification (IFN-γ; pg/ml) 50 μM |
| --- | --- | --- | --- | --- |
| LSIGTGRAMLGTHTMEVTVYH [SEQ ID NO:3] | specifically recognized | 4 to 10 µM | 21,000 pg/ml | >25,000 pg/ml |
| SIGTGRAMLGTHTMEVTVYH [SEQ ID NO:12] | – | – | 20,710 pg/ml | >25,000 pg/ml |
| TGRAFLGTHTMEVTVYHRRGS [SEQ ID NO:17] | – | – | 19,390 pg/ml | >25,000 pg/ml |
| GTGRAMLGTHTMEVTVYH [SEQ ID NO:10] | – | – | 18,770 pg/ml | >25,000 pg/ml |
| TGRAYLGTHTMEVTVYHRRGS [SEQ ID NO:19] | – | – | 11,640 pg/ml | >25,000 pg/ml |
| RAMLGTHTMEVTVYHRRGSRS [SEQ ID NO:15] | – | – | 912 pg/mL | 15,230 pg/ml |
| MLGTHTMEVTVYHRRGSRSYV [SEQ ID NO:16] | – | – | 52 pg/mL | 5,940 pg/ml |
| TGRAMLGTHTMEVTVYHR [SEQ ID NO:6] | – | – | 11,100 pg/ml | >25,000 pg/ml |
| PVSGLSIGTGRAMLGTHTMEV [SEQ ID NO:20] | – | – | <8 pg/mL | 19 pg/mL |
| IGTGRAMLGTHTMEVTVYHRR [SEQ ID NO:4] | – | – | 17,050 pg/ml | >25,000 pg/ml |
| TGRALLGTHTMEVTVYHRRGS [SEQ ID NO:18] | – | – | 23,140 pg/ml | >25,000 pg/ml |
| SIGTGRAMLGTHTMEVTVYHR [SEQ ID NO:13] | – | – | 12,210 pg/ml | >25,000 pg/ml |
| IGTGRAMLGTHTMEVTVYH [SEQ ID NO:11] | – | – | 17,590 pg/ml | >25,000 pg/ml |
| TGRAMLGTHTMEVTVYHRRG [SEQ ID NO:8] | – | – | 17,910 pg/ml | >25,000 pg/ml |
| SGLSIGTGRAMLGTHTMEVTV [SEQ ID NO:14] | – | – | 1,655 pg/ml | 4,200 pg/ml |
| TGRAMLGTHTMEVTVYHRR [SEQ ID NO:7] | – | – | 11,550 pg/ml | >25,000 pg/ml |
| TGRAMLGTHTMEVTVYHRRGS [SEQ ID NO:5] | – | – | 17,140 pg/ml | >25,000 pg/ml |
| GTGRAMLGTHTMEVTVYHRRG [SEQ ID NO:9] | – | – | 22,910 pg/ml | >25,000 pg/ml |
| TGRAMLGTHTMEVTVYH [SEQ ID NO:2] | – | – | 14,010 pg/ml | >25,000 pg/ml |
